Test results taken from paper PMC3236397 (Frontiers in Pharmacology, 2011).
Blank lines part the entries; values can stand above or below the molecule they belong to.

Legend:
M2 = M2 (Homo sapiens, UniProt P08172); assay: GPCR cell-based functional assay, Safety and Liability Panel; conditions: read-out: Percentage inhibition
OPRK1 = OPRK1 (Homo sapiens, UniProt P41145); assay: as above; conditions: read-out: Percentage inhibition
NK3 = NK3 (Homo sapiens, UniProt P29371); assay: as above; conditions: read-out: Percentage inhibition
CGRP1 = CGRP1 (Homo sapiens, UniProt O60894+Q16602); assay: as above; conditions: read-out: Percentage inhibition
EP2 = EP2 (Homo sapiens, UniProt P43116); assay: as above; conditions: read-out: Percentage inhibition
CCK2 = CCK2 (Homo sapiens, UniProt P32239); assay: as above; conditions: read-out: Percentage inhibition
D5 = D5 (Homo sapiens, UniProt P21918); assay: as above; conditions: read-out: Percentage inhibition
CXCR1 = CXCR1 (Homo sapiens, UniProt P25024); assay: as above; conditions: read-out: Percentage inhibition
5-HT2B = 5-HT2B (Homo sapiens, UniProt P41595); assay: as above; conditions: read-out: Percentage inhibition
M1 = M1 (Homo sapiens, UniProt P11229); assay: as above; conditions: read-out: Percentage inhibition
OPRM1 = OPRM1 (Homo sapiens, UniProt P35372); assay: as above; conditions: OPRM1, read-out: Percentage inhibition
CCR1 = CCR1 (Homo sapiens, UniProt P32246); assay: as above; conditions: read-out: Percentage inhibition
H2 = H2 (Homo sapiens, UniProt P25021); assay: as above; conditions: read-out: Percentage inhibition
CRF1 = CRF1 (Homo sapiens, UniProt P34998); assay: as above; conditions: read-out: Percentage inhibition
Alpha1D = Alpha1D (Homo sapiens, UniProt P25100); assay: as above; conditions: read-out: Percentage inhibition
5-HT2C = 5-HT2C (Homo sapiens, UniProt P28335); assay: as above; conditions: read-out: Percentage inhibition
CB2 = CB2 (Homo sapiens, UniProt P34972); assay: as above; conditions: read-out: Percentage inhibition
hERG = hERG (Homo sapiens, UniProt Q12809); assay: in vitro
BB2 = BB2 (Homo sapiens, UniProt P30550); assay: GPCR cell-based functional assay, Safety and Liability Panel; conditions: read-out: Percentage inhibition
A1 = A1 (Homo sapiens, UniProt P30542); assay: as above; conditions: read-out: Percentage inhibition
NK1 = NK1 (Homo sapiens, UniProt P25103); assay: as above; conditions: read-out: Percentage inhibition
Motilin receptor = Motilin receptor (Homo sapiens, UniProt O43193); assay: as above; conditions: read-out: Percentage inhibition
UT/GPR14 = UT/GPR14 (Homo sapiens, UniProt Q9UKP6); assay: as above; conditions: read-out: Percentage inhibition
D2L = D2L (Homo sapiens, UniProt P14416); assay: as above; conditions: read-out: Percentage inhibition
NMU1 = NMU1 (Homo sapiens, UniProt Q9HB89); assay: as above; conditions: read-out: Percentage inhibition
Trypsin-mediated PARs = assay: as above; set-up: species or system human; conditions: 10 μM BIRB0796
PRP = PRP (Homo sapiens, UniProt P49683); assay: as above; conditions: read-out: Percentage inhibition
PTH1 = PTH1 (Homo sapiens, UniProt Q03431); assay: as above; conditions: read-out: Percentage inhibition
PAC1 long isoform = assay: as above; set-up: species or system human; conditions: 10 μM BIRB0796
DP = DP (Homo sapiens, UniProt Q13258); assay: as above; conditions: read-out: Percentage inhibition
EP3 = EP3 (Homo sapiens, UniProt P43115); assay: as above; conditions: read-out: Percentage inhibition
S1P3 = S1P3 (Homo sapiens, UniProt Q99500); assay: as above; conditions: read-out: Percentage inhibition
H3 = H3 (Homo sapiens, UniProt Q9Y5N1); assay: as above; conditions: read-out: Percentage inhibition
CX3CR1 = CX3CR1 (Homo sapiens, UniProt P49238); assay: as above; conditions: read-out: Percentage inhibition
MC5 = MC5 (Homo sapiens, UniProt P33032); assay: as above; conditions: read-out: Percentage inhibition
GnRH/LHRH = GnRH/LHRH (Homo sapiens, UniProt P30968); assay: as above; conditions: read-out: Percentage inhibition
AT1 = AT1 (Homo sapiens, UniProt P30556); assay: as above; conditions: read-out: Percentage inhibition
LPA1 = LPA1 (Homo sapiens, UniProt Q92633); assay: as above; conditions: read-out: Percentage inhibition
VPAC1 = VPAC1 (Homo sapiens, UniProt P32241); assay: as above; conditions: read-out: Percentage inhibition
LPA3 = LPA3 (Homo sapiens, UniProt Q9UBY5); assay: as above; conditions: read-out: Percentage inhibition
5-HT2A = 5-HT2A (Homo sapiens, UniProt P28223); assay: as above; conditions: read-out: Percentage inhibition
PK1 = PK1 (Homo sapiens, UniProt Q8TCW9); assay: as above; conditions: PK-1, read-out: Percentage inhibition
GAL1 = GAL1 (Homo sapiens, UniProt P47211); assay: as above; conditions: read-out: Percentage inhibition
CCR2B = CCR2B (Homo sapiens, UniProt P41597); assay: as above; conditions: read-out: Percentage inhibition
D1 = D1 (Homo sapiens, UniProt P21728); assay: as above; conditions: read-out: Percentage inhibition
Alpha2A = Alpha2A (Homo sapiens, UniProt P08913); assay: as above; conditions: read-out: Percentage inhibition
CB1 = CB1 (Homo sapiens, UniProt P21554); assay: as above; conditions: read-out: Percentage inhibition
H1 = H1 (Homo sapiens, UniProt P35367); assay: as above; conditions: read-out: Percentage inhibition
PAF = PAF (Homo sapiens, UniProt P25105); assay: as above; conditions: read-out: Percentage inhibition
ETA = ETA (Homo sapiens, UniProt P25101); assay: as above; conditions: read-out: Percentage inhibition
M3 = M3 (Homo sapiens, UniProt P20309); assay: as above; conditions: read-out: Percentage inhibition
GPR109A = GPR109A (Homo sapiens, UniProt Q8TDS4); assay: as above; conditions: read-out: Percentage inhibition
A3 = A3 (Homo sapiens, UniProt P0DMS8); assay: as above; conditions: read-out: Percentage inhibition
OPRD1 = OPRD1 (Homo sapiens, UniProt P41143); assay: as above; conditions: read-out: Percentage inhibition
FP = FP (Homo sapiens, UniProt P43088); assay: as above; conditions: read-out: Percentage inhibition
Alpha1A = Alpha1A (Homo sapiens, UniProt P35348); assay: as above; conditions: read-out: Percentage inhibition
OX1 = OX1 (Homo sapiens, UniProt O43613); assay: as above; conditions: read-out: Percentage inhibition
V1A = V1A (Homo sapiens, UniProt P37288); assay: as above; conditions: read-out: Percentage inhibition
TP = TP (Homo sapiens, UniProt P21731); assay: as above; conditions: read-out: Percentage inhibition
Y2 = Y2 (Homo sapiens, UniProt P49146); assay: as above; conditions: read-out: Percentage inhibition
C5aR = C5aR (Homo sapiens, UniProt P21730); assay: as above; conditions: read-out: Percentage inhibition
FPR1 = FPR1 (Homo sapiens, UniProt P21462); assay: as above; conditions: read-out: Percentage inhibition
IP1 = IP1 (Homo sapiens, UniProt P43119); assay: as above; conditions: read-out: Percentage inhibition
P2Y1 = P2Y1 (Homo sapiens, UniProt P47900); assay: as above; conditions: read-out: Percentage inhibition
BLT1 = BLT1 (Homo sapiens, UniProt Q15722); assay: as above; conditions: read-out: Percentage inhibition
OT = OT (Homo sapiens, UniProt P30559); assay: as above; conditions: read-out: Percentage inhibition
V2 = V2 (Homo sapiens, UniProt P30518); assay: as above; conditions: read-out: Percentage inhibition
B2 = B2 (Homo sapiens, UniProt P30411); assay: as above; conditions: read-out: Percentage inhibition
VPAC2 = VPAC2 (Homo sapiens, UniProt P41587); assay: as above; conditions: read-out: Percentage inhibition
5-HT1A = 5-HT1A (Homo sapiens, UniProt P08908); assay: as above; conditions: read-out: Percentage inhibition
Beta 1 = Beta 1 (Homo sapiens, UniProt P08588); assay: as above; conditions: read-out: Percentage inhibition
NTR1 = NTR1 (Homo sapiens, UniProt P30989); assay: as above; conditions: read-out: Percentage inhibition
CysLT1 = CysLT1 (Homo sapiens, UniProt Q9Y271); assay: as above; conditions: read-out: Percentage inhibition
SST4 = SST4 (Homo sapiens, UniProt P31391); assay: as above; conditions: read-out: Percentage inhibition
ETB = ETB (Homo sapiens, UniProt P24530); assay: as above; conditions: read-out: Percentage inhibition
Beta 2 = Beta 2 (Homo sapiens, UniProt P07550); assay: as above; conditions: read-out: Percentage inhibition
TSH = TSH (Homo sapiens, UniProt P16473); assay: as above; conditions: read-out: Percentage inhibition
Kv1.5 = Kv1.5 (Homo sapiens, UniProt P22460); assay: Cardiac ion channel functional assay, Safety and Liability Panel; format: cell-based
Nav1.6 = Nav1.6 (Homo sapiens, UniProt Q9UQD0); assay: IonWorks Quattro 2-pulse inactivated-state protocol; format: cell-based; conditions: Predicted IC50 potency values Nav1.6 P1, Pulse 1, 2-pulse protocol

Chain of H3 (Q9Y5N1 whole entry): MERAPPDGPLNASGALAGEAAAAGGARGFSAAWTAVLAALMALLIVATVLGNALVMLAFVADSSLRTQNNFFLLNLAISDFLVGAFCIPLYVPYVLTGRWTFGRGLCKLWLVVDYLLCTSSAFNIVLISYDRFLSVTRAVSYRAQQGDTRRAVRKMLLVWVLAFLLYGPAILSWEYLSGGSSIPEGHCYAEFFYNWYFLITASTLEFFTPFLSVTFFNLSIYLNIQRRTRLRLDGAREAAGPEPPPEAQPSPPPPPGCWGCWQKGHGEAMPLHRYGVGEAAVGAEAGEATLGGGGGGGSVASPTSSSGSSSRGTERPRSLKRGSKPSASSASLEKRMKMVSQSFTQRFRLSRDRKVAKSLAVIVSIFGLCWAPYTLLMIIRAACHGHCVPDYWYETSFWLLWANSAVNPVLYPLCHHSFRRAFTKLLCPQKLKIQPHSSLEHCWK
Chain of Y2 (P49146 whole entry): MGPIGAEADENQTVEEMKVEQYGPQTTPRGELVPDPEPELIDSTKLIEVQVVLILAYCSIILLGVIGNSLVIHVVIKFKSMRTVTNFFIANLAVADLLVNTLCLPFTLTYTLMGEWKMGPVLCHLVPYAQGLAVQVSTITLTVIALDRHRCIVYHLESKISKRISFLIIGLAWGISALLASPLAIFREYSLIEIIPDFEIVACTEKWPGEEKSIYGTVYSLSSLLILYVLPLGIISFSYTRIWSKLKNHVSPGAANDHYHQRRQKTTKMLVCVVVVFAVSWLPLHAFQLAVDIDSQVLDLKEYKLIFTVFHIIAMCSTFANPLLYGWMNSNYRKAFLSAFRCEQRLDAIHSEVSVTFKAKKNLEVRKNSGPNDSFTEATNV
Chain of VPAC1 (P32241 31-457): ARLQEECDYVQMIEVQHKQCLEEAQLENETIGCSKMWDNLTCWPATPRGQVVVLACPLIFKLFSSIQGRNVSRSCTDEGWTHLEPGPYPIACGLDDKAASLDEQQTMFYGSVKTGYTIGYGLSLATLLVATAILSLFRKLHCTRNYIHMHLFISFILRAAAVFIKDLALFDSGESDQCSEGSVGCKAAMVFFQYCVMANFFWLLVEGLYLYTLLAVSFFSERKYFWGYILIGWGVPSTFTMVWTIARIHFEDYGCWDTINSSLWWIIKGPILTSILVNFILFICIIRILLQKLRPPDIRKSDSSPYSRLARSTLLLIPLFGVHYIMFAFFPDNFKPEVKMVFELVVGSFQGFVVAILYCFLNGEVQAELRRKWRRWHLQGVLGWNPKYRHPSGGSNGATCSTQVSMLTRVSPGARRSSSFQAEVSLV
Chain of 5-HT2B (P41595 whole entry): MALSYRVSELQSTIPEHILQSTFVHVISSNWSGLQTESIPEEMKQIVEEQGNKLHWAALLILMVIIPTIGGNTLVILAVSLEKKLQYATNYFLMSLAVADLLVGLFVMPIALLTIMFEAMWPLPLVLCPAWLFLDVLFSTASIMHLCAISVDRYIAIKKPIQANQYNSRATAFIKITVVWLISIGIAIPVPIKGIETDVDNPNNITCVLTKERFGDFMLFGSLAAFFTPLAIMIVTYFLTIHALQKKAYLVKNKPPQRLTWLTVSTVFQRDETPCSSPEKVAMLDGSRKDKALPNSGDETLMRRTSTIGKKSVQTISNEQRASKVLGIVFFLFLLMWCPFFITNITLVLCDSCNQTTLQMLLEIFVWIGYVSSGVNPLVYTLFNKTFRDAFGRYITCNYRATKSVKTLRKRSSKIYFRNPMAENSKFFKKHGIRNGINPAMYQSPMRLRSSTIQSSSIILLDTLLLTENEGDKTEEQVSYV
Chain of PTH1 (Q03431 27-593): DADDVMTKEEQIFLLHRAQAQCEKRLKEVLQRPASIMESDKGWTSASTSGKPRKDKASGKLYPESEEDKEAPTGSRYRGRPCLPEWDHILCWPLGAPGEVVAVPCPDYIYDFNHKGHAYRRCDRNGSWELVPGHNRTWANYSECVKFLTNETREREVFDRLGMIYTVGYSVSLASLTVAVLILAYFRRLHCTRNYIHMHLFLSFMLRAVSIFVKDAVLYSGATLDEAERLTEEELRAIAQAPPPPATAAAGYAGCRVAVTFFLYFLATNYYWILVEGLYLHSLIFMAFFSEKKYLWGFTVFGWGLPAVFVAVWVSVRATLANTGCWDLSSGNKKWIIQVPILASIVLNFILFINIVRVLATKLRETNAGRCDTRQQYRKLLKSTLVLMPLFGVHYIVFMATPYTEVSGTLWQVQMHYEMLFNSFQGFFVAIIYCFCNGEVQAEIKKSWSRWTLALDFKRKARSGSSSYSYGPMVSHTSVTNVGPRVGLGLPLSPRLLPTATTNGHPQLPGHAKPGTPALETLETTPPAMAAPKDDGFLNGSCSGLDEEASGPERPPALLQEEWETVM
Chain of CCR1 (P32246 whole entry): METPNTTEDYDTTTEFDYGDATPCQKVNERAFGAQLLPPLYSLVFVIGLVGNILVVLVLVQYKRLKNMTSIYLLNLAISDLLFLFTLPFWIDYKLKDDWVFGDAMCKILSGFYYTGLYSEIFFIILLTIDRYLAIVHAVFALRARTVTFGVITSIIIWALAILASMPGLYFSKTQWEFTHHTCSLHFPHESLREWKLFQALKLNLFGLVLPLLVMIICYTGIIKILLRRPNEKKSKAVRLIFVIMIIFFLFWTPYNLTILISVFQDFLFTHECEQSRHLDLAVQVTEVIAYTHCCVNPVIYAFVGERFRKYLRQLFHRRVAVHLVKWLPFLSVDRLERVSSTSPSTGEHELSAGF
Chain of OT (P30559 whole entry): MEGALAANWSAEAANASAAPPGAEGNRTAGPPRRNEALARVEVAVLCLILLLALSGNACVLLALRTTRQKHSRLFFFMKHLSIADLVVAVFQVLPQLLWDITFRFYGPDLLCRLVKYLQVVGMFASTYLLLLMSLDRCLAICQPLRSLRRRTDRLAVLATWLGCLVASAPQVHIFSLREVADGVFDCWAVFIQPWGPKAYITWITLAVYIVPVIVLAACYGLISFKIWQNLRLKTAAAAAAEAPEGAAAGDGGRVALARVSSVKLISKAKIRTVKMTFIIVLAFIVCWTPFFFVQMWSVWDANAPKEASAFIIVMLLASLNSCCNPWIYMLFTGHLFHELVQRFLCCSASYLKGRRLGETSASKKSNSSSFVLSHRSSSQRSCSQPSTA
Chain of OX1 (O43613 whole entry): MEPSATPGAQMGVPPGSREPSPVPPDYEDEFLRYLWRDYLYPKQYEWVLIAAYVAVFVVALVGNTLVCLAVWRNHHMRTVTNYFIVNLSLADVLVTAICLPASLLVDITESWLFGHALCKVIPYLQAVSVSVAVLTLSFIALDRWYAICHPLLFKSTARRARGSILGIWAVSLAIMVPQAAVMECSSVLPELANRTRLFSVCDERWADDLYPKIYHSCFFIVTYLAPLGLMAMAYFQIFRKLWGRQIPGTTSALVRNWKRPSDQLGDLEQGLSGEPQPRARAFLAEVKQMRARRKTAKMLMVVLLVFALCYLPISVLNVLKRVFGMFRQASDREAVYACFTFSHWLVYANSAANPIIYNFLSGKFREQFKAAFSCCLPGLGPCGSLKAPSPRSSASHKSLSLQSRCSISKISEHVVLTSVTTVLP
Chain of ETA (P25101 21-427): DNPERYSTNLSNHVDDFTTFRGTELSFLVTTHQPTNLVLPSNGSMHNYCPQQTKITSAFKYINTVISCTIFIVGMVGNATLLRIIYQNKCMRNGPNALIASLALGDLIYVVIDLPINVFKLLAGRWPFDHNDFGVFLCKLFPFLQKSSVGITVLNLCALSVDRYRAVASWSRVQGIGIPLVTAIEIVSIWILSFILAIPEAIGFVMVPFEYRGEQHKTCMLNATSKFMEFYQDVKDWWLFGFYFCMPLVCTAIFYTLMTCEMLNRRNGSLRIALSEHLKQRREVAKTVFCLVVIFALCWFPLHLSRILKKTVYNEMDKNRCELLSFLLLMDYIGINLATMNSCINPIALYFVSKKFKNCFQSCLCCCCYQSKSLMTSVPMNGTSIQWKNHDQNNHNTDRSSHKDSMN
Chain of DP (Q13258 whole entry): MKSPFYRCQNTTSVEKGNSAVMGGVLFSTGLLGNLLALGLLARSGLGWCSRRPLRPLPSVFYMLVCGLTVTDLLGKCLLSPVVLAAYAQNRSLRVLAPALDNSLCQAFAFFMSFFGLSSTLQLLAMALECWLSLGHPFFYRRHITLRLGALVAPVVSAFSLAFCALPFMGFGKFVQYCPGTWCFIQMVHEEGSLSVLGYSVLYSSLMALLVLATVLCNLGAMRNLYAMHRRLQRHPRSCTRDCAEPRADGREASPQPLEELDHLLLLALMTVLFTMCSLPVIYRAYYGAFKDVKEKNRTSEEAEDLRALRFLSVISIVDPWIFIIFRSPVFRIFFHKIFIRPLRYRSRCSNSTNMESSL
Chain of NK3 (P29371 whole entry): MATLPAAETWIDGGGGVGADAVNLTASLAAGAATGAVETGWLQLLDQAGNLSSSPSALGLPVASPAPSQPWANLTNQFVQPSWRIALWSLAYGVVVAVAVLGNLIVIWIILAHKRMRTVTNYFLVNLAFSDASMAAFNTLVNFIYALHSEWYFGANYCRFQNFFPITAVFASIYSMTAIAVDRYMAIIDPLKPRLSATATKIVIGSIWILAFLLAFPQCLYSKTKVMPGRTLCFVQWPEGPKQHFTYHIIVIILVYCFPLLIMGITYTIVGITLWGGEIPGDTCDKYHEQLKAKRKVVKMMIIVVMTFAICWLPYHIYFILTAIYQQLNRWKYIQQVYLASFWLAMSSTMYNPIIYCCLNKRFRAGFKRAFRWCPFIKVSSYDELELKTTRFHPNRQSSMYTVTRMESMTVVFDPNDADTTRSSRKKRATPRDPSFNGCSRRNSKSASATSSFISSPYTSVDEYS

Structure (SMILES): Cc1ccc(-n2nc(C(C)(C)C)cc2NC(=O)Nc2ccc(OCCN3CCOCC3)c3ccccc23)cc1 [BIRB0796]
inhibition at 10 µM (M2): 34.5% | inhibition at 10 µM (OPRK1): -19% | inhibition at 10 µM (NK3): 17.5% | inhibition at 10 µM (CGRP1): 0% | inhibition at 10 µM (EP2): 2.5% | inhibition at 10 µM (CCK2): 2% | inhibition at 10 µM (D5): 14% | inhibition at 10 µM (CXCR1): -1.5% | inhibition at 10 µM (5-HT2B): 18.5% | inhibition at 10 µM (M1): 46.5% | inhibition at 10 µM (OPRM1): -2.5% | inhibition at 10 µM (CCR1): -6% | inhibition at 10 µM (H2): -5.5% | inhibition at 10 µM (CRF1): 13% | inhibition at 10 µM (Alpha1D): 3.5% | inhibition at 10 µM (5-HT2C): 5.5% | inhibition at 10 µM (CB2): 80% | inhibition at 10 µM (hERG): ≥ 50% | inhibition at 10 µM (BB2): 0% | inhibition at 10 µM (A1): 19.5% | inhibition at 10 µM (NK1): 12% | inhibition at 10 µM (Motilin receptor): 94.5% | inhibition at 10 µM (UT/GPR14): 18.5% | inhibition at 10 µM (D2L): 53.5% | inhibition at 10 µM (NMU1): 22.5% | Percentage inhibition (Trypsin-mediated PARs): 9.0% | inhibition at 10 µM (PRP): 3% | inhibition at 10 µM (PTH1): 0% | Percentage inhibition (PAC1 long isoform): 3.5% | inhibition at 10 µM (DP): 12.5% | inhibition at 10 µM (EP3): 7.5% | inhibition at 10 µM (S1P3): -1.5% | inhibition at 10 µM (H3): 91.5% | inhibition at 10 µM (CX3CR1): -12% | inhibition at 10 µM (MC5): 2% | inhibition at 10 µM (GnRH/LHRH): -20.5% | inhibition at 10 µM (AT1): -2.5% | inhibition at 10 µM (LPA1): 6.5% | inhibition at 10 µM (VPAC1): -2% | inhibition at 10 µM (LPA3): 5% | inhibition at 10 µM (5-HT2A): 99.5% | inhibition at 10 µM (PK1): -6.5% | inhibition at 10 µM (GAL1): -1.5% | inhibition at 10 µM (CCR2B): 0% | inhibition at 10 µM (D1): 23% | inhibition at 10 µM (Alpha2A): -4% | inhibition at 10 µM (CB1): 9% | inhibition at 10 µM (H1): -1.5% | inhibition at 10 µM (PAF): 19.5% | inhibition at 10 µM (ETA): -4% | inhibition at 10 µM (M3): 5% | inhibition at 10 µM (GPR109A): -1% | inhibition at 10 µM (A3): 20.5% | inhibition at 10 µM (OPRD1): 8.5% | inhibition at 10 µM (FP): 20.5% | inhibition at 10 µM (Alpha1A): 6% | inhibition at 10 µM (OX1): 12% | inhibition at 10 µM (V1A): 2% | inhibition at 10 µM (TP): 32% | inhibition at 10 µM (Y2): -13.5% | inhibition at 10 µM (C5aR): -5.5% | inhibition at 10 µM (FPR1): -4.5% | inhibition at 10 µM (IP1): 12.5% | inhibition at 10 µM (P2Y1): 10.5% | inhibition at 10 µM (BLT1): 8.5% | inhibition at 10 µM (OT): 12.5% | inhibition at 10 µM (V2): 1% | inhibition at 10 µM (B2): -4.5% | inhibition at 10 µM (VPAC2): -4% | inhibition at 10 µM (5-HT1A): 31% | inhibition at 10 µM (Beta 1): -6% | inhibition at 10 µM (NTR1): -12% | inhibition at 10 µM (CysLT1): 2% | inhibition at 10 µM (SST4): -5.5% | inhibition at 10 µM (ETB): 11% | inhibition at 10 µM (Beta 2): -9.5% | inhibition at 10 µM (TSH): -4% | inhibition at 10 µM (Kv1.5): ≥ 50%

IC50 (Nav1.6): 270 µM
Structure (SMILES): CCN(CC)CC(=O)Nc1c(C)cccc1C [Lidocaine]
